Assay results as given in US6787525B1, “Glyceryl nucleotides, method for the production thereof and their use” (priority 1998, dated 2004).

Legend:
OVCAR-8 = experiment: In vitro cytostatic effect (SRB): OVCAR-8, Ovarian cancer
BT-549 = experiment: In vitro cytostatic effect (SRB): BT-549, Breast cancer
NCI-H23 = experiment: In vitro cytostatic effect (SRB): NCI-H23, Lung cancer
HCT-15 = experiment: In vitro cytostatic effect (SRB): HCT-15, Intestinal cancer; settings: 48-hour incubation
SF-539 = experiment: In vitro cytostatic effect (SRB): SF-539, Cancer of the central nervous system
CAKI-1 = experiment: In vitro cytostatic effect (SRB): CAKI-1, Kidney cancer
MDA-N = experiment: In vitro cytostatic effect (SRB): MDA-N, Breast cancer
MALME-3M = experiment: In vitro cytostatic effect (SRB): MALME-3M, Melanoma
MDA-MB-231/ATCC = experiment: In vitro cytostatic effect (SRB): MDA-MB-231/ATCC, Breast cancer
SF-295 = experiment: In vitro cytostatic effect (SRB): SF-295, Cancer of the central nervous system
SR = experiment: In vitro cytostatic effect (SRB): SR, Leukemia
RXF 393 = experiment: In vitro cytostatic effect (SRB): RXF 393, Kidney cancer
OVCAR-3 = experiment: In vitro cytostatic effect (SRB): OVCAR-3, Ovarian cancer
NCI-H460 = experiment: In vitro cytostatic effect (SRB): NCI-H460, Lung cancer
HT29 = experiment: In vitro cytostatic effect (SRB): HT29, Intestinal cancer
ACHN = experiment: In vitro cytostatic effect (SRB): ACHN, Kidney cancer
OVCAR-5 = experiment: In vitro cytostatic effect (SRB): OVCAR-5, Ovarian cancer
UACC-62 = experiment: In vitro cytostatic effect (SRB): UACC-62, Melanoma
SN12C = experiment: In vitro cytostatic effect (SRB): SN12C, Kidney cancer
768-0 = experiment: In vitro cytostatic effect (SRB): 768-0, Kidney cancer
KM12 = experiment: In vitro cytostatic effect (SRB): KM12, Intestinal cancer
SNB-75 = experiment: In vitro cytostatic effect (SRB): SNB-75, Cancer of the central nervous system
U251 = experiment: In vitro cytostatic effect (SRB): U251, Cancer of the central nervous system
T-47D = experiment: In vitro cytostatic effect (SRB): T-47D, Breast cancer
LOX IMVI = experiment: In vitro cytostatic effect (SRB): LOX IMVI, Melanoma
M14 = experiment: In vitro cytostatic effect (SRB): M14, Melanoma
MOLT-4 = experiment: In vitro cytostatic effect (SRB): MOLT-4, Leukemia
[1] = read-out: LC50, 48-hour incubation

SMILES: Nc1ccn(C2CCC(COP(=O)(O)OCC(O)COP(=O)(O)OCC3OC(n4cc(F)c(=O)[nH]c4=O)CC3O)O2)c(=O)n1 (racemic) [NSC 704533, 2′,3′-didesoxycytidylyl-(5′→1)-racglycerylyl-(3→5′)-5-fluoro-2′-desoxyuridine]
- GI50 (OVCAR-8; 48-hour incubation): 0.141 µM
- TGI (OVCAR-8; 48-hour incubation): >1.00E − 04 mol/l
- CC50 (OVCAR-8; [1]): > 100 µM
- GI50 (BT-549; 48-hour incubation): 4.15 µM
- TGI (BT-549; 48-hour incubation): >1.00E − 04 mol/l
- CC50 (BT-549; [1]): > 100 µM
- GI50 (NCI-H23; 48-hour incubation): 0.0979 µM
- TGI (NCI-H23; 48-hour incubation): >1.00E − 04 mol/l
- CC50 (NCI-H23; [1]): > 100 µM
- GI50 (HCT-15): 17.9 µM
- TGI (HCT-15): >1.00E − 04 mol/l
- GI50 (SF-539; 48-hour incubation): 0.0216 µM
- TGI (SF-539; 48-hour incubation): >1.00E − 04 mol/l
- CC50 (SF-539; [1]): > 100 µM
- GI50 (CAKI-1; 48-hour incubation): 1.44 µM
- TGI (CAKI-1; 48-hour incubation): >1.00E − 04 mol/l
- CC50 (CAKI-1; [1]): > 100 µM
- GI50 (MDA-N; 48-hour incubation): 25.4 µM
- TGI (MDA-N; 48-hour incubation): >1.00E − 04 mol/l
- CC50 (MDA-N; [1]): > 100 µM
- GI50 (MALME-3M; 48-hour incubation): > 100 µM
- TGI (MALME-3M; 48-hour incubation): >1.00E − 04 mol/l
- CC50 (MALME-3M; [1]): > 100 µM
- GI50 (MDA-MB-231/ATCC; 48-hour incubation): 95.5 µM
- TGI (MDA-MB-231/ATCC; 48-hour incubation): >1.00E − 04 mol/l
- CC50 (MDA-MB-231/ATCC; [1]): > 100 µM
- GI50 (SF-295; 48-hour incubation): 0.0345 µM
- TGI (SF-295; 48-hour incubation): >1.00E − 04 mol/l
- CC50 (SF-295; [1]): > 100 µM
- GI50 (SR; 48-hour incubation): < 0.01 µM
- TGI (SR; 48-hour incubation): >1.00E − 04 mol/l
- CC50 (SR; [1]): > 100 µM
- GI50 (RXF 393; 48-hour incubation): 5.12 µM
- TGI (RXF 393; 48-hour incubation): >1.00E − 04 mol/l
- CC50 (RXF 393; [1]): > 100 µM
- GI50 (OVCAR-3; 48-hour incubation): 65.4 µM
- TGI (OVCAR-3; 48-hour incubation): >1.00E − 04 mol/l
- CC50 (OVCAR-3; [1]): > 100 µM
- GI50 (NCI-H460; 48-hour incubation): < 0.01 µM
- TGI (NCI-H460; 48-hour incubation): >1.00E − 04 mol/l
- CC50 (NCI-H460; [1]): > 100 µM
- GI50 (HT29; 48-hour incubation): 1.88 µM
- TGI (HT29; 48-hour incubation): >1.00E − 04 mol/l
- CC50 (HT29; [1]): > 100 µM
- GI50 (ACHN; 48-hour incubation): < 0.01 µM
- TGI (ACHN; 48-hour incubation): >1.00E − 04 mol/l
- CC50 (ACHN; [1]): > 100 µM
- GI50 (OVCAR-5; 48-hour incubation): 12.6 µM
- TGI (OVCAR-5; 48-hour incubation): >1.00E − 04 mol/l
- CC50 (OVCAR-5; [1]): > 100 µM
- GI50 (UACC-62; 48-hour incubation): 0.55 µM
- TGI (UACC-62; 48-hour incubation): >1.00E − 04 mol/l
- CC50 (UACC-62; [1]): > 100 µM
- GI50 (SN12C; 48-hour incubation): 0.173 µM
- TGI (SN12C; 48-hour incubation): >1.00E − 04 mol/l
- CC50 (SN12C; [1]): > 100 µM
- GI50 (HL-60(TB); Leukemia, 48-hour incubation): 0.0715 µM
- TGI (HL-60(TB); Leukemia, 48-hour incubation): >1.00E − 04 mol/l
- CC50 (HL-60(TB); read-out: LC50, Leukemia, 48-hour incubation): > 100 µM
- GI50 (768-0; 48-hour incubation): > 100 µM
- TGI (768-0; 48-hour incubation): >1.00E − 04 mol/l
- CC50 (768-0; [1]): > 100 µM
- GI50 (KM12; 48-hour incubation): 14.5 µM
- TGI (KM12; 48-hour incubation): >1.00E − 04 mol/l
- CC50 (KM12; [1]): > 100 µM
- GI50 (SNB-75; 48-hour incubation): 1.59 µM
- TGI (SNB-75; 48-hour incubation): >1.00E − 04 mol/l
- CC50 (SNB-75; [1]): > 100 µM
- GI50 (U251; 48-hour incubation): 1.26 µM
- TGI (U251; 48-hour incubation): >1.00E − 04 mol/l
- CC50 (U251; [1]): > 100 µM
- GI50 (T-47D; 48-hour incubation): 1.42 µM
- TGI (T-47D; 48-hour incubation): >1.00E − 04 mol/l
- CC50 (T-47D; [1]): > 100 µM
- GI50 (LOX IMVI; 48-hour incubation): 0.0101 µM
- TGI (LOX IMVI; 48-hour incubation): >1.00E − 04 mol/l
- CC50 (LOX IMVI; [1]): > 100 µM
- GI50 (M14; 48-hour incubation): 0.203 µM
- TGI (M14; 48-hour incubation): >1.00E − 04 mol/l
- CC50 (M14; [1]): > 100 µM
- GI50 (MOLT-4; 48-hour incubation): 0.104 µM
- TGI (MOLT-4; 48-hour incubation): >1.00E − 04 mol/l
- CC50 (MOLT-4; [1]): > 100 µM
